Reference: patent US8207189B2, “Compound having affinity for amyloid” (Nihon Medi-Physics Co., Ltd., priority 2007, dated 2012)

What was measured:
[1] = rats, [11C]-labeled; cited from earlier work
[2] = WO03/106439; cited from earlier work
[3] = transferability into brain and clearance after intravenous injection; assay type: in vivo, rat; details: for Radioactive distribution per unit weight in brain, After 2 min. / Radioactive distribution per unit weight in brain, After 5 min. / Radioactive distribution per unit weight in brain, After 30 min. / Radioactive distribution per unit weight in brain, After 60 min.: male Wistar rats, intravenous injection; for radioactive accumulation in brain two minutes after the injection (in words) / clearance from brain in 60 minutes (in words): rats, intravenous; for Radioactive distribution per unit weight in brain, After 2 min. / radioactive accumulation in brain two minutes after the injection (in words): 2 min
Method: Using Compound 1 (Example 10) and Compound 2 (Example 11), a time course change of radioactive accumulation in brain of male Wistar rats (7-week old) was measured.
A diethyl ether solution of Compound 1 (Example 10) prepared in Example 3, a diethyl ether solution of Compound 2 (Example 11) prepared in Example 6 and a diethyl ether solution of [^123I]-IMPY (Comparative Example 5) prepared in Reference Example 1 were each diluted with 10 mg/mL ascorbic acid-containing physiological saline solution to adjust to a radioactive concentration of 8-12 MBq/mL. 0.05 mL each of the prepared sample solutions was injected under thiopental anesthesia into the tail vein of the rats. The rats were sacrificed by bleeding from abdominal artery, and brains were removed and subjected to measurement of mass of brains and further subjected to measurement of radioactivity (hereinafter referred to as A in this Example) with a single channel analyzer (detector type: SP-20 manufactured by OHYO KOKEN KOGYO Co., Ltd.) 2, 5, 30 and 60 minutes after the injection. Further, the radioactivity level of the rest of the whole body was measured in the same manner as above (hereinafter referred to as B in this Example). Using these measurement results, radioactive distribution per unit weight of brain (% ID/g) at the respective time points were calculated in accordance with the following formula (3).
Three animals were used for the experiment at the respective time points.
Using Compound 4 and Compound 6, a time course change of radioactive accumulation in brain of male Wistar rats (7-week old) was measured.
Compound 4 (Example 22), Compound 6 (Example 23) and a solution of [^123I]-IMPY (Comparative Example 8) prepared above in Reference Example 1 were each diluted with a 10 mg/mL ascorbic acid-containing physiological saline solution to prepare solutions (20-31 MBq/mL in radioactive concentration). 0.05 mL each of the prepared sample solutions was injected under thiopental anesthesia into the tail vein of the respective Wistar rat (7-week old). The rats were sacrificed by bleeding from abdominal artery, and brains were removed and subjected to measurement of mass of brains and further subjected to measurement of radioactivity (hereinafter referred to as A in this Example) with a single channel analyzer (detector type: SP-20 manufactured by OHYO KOKEN KOGYO Co., Ltd.) 2, 5, 30 and 60 minutes after the injection. Further, the radioactivity level of the rest of the whole body was measured in the same manner as above (hereinafter referred to as B in this Example). Using these measurement results, radioactive distribution per unit weight of brain (% ID/g) at the respective time points were calculated in accordance with the following formula (5).

[4] = partition coefficient based on the octanol extraction method; assay type: physicochemical; details: octanol / 10 mmol/L phosphate buffer pH 7.4
Method: Partition coefficients based on the octanol extraction method (hereinafter referred to as log Poctanol) were measured, which are generally known as an indicator of permeability of compounds through the blood-brain barrier (hereinafter referred to as BBB).
A diethyl ether solution of Compound 1 prepared in Example 3 (Example 8), a diethyl ether solution of Compound 2 prepared in Example 6 (Example 9), and a diethyl ether solution of [^123I]-IMPY prepared in Reference Example 1 (Comparative Example 4) were each diluted with 10 mg/mL ascorbic acid-containing physiological saline solution, and adjusted to a radioactive concentration of 20-30 MBq/mL. To 2 mL of octanol, 10 μL each of the prepared sample solutions was added, 2 mL of 10 mmol/L phosphate buffer (pH 7.4) was added, followed by stirring for 30 seconds. After the mixture was centrifuged with a low-speed centrifuge (2000 rpm×60 min.), the octanol layer and the water layer were sampled each in an amount of 1 mL, and subjected to measurement of radioactivity count with an autowell gamma system (Type: ARC-301B, manufactured by Aloka). Using the obtained radioactivity count, log Poctanol was calculated in accordance with the equation (2).
A diethyl ether solution (Example 20) of Compound 4 prepared in Example 16, a diethyl ether solution (Example 21) of Compound 6 prepared in Example 19, and a diethyl ether solution (Comparative Example 7) of [^123I]-IMPY were each diluted with a 10 mg/mL ascorbic acid-containing physiological saline solution to adjust to a radioactive concentration of 20-30 MBq/mL. To 2 mL of octanol, 10 μL each of the prepared sample solution was added, and 2 mL of 10 mmol/L phosphate buffer (pH 7.4) was further added, followed by stirring for 30 seconds. After the mixture was centrifuged with a low-speed centrifuge (2000 rpm×60 min.), the octanol layer and the water layer were sampled each in an amount of 1 mL, and subjected to measurement of radioactivity count with an autowell gamma system (Type: ARC-301B, manufactured by Aloka). Using the obtained radioactivity count, log Poctanol was calculated in accordance with the equation (4).

[5] = system: amyloid (aggregated Aβ1-42) injected into amygdaloid nucleus; test: confirmation of imaging of amyloid in brain (autoradiogram, Aβ1-42 injected rats); assay type: in vivo, rat; details: brain slice 60 minutes after intravenous injection
Method: (§1) (1) Aβ1-42 (manufactured by Wako) was dissolved in phosphate buffer (pH 7.4) and shaken at 37° C. for 72 hours, to obtain a 1 mg/mL suspension of aggregated Aβ (hereinafter referred to as amyloid suspension in the Examples).
(§2) (2) 2.5 μL (corresponding to […]) of the amyloid suspension was injected into an amygdaloid nucleus on one side of a male Wistar rat (7-week old). As a control, 2.5 μL of a phosphate buffered physiological saline solution (pH 7.4) was injected into an amygdaloid nucleus on the other side of the rat. The rats were examined 1 day after the injection of the amyloid suspension and the phosphate buffered physiological saline solution (pH 7.4).
(§3) (3) Compound 1 was dissolved in a 10 mg/mL ascorbic acid-containing physiological saline solution to obtain a sample solution (22 MBq/mL in radioactivity concentration in the sample solution). This solution was injected under thiopental anesthesia into the rat through the tail vein (dosage: 0.5 mL, dosed radioactivity: 11-13 MBq equivalent).
(§4) (4) Brain was removed 60 minutes after the injection to prepare a brain slice of 10 μm in thickness with a microtome (type: CM3050S, manufactured by LEICA). The brain slice was exposed to an imaging plate for 20 hours, and then image analysis was carried out by use of a Bio-imaging Analyzer (type: BAS-2500; manufactured by FUJIFILM Corporation).
(§5) Thus, it was confirmed that amyloid was deposited on the slice (FIG. 6b).
(§6) The same procedures as in Example 12 were performed except using a solution of Compound 2 in a 10 mg/mL ascorbic acid as a sample solution (the radioactive concentration of the sample solution was 25 MBq/mL).
(§7) (1) Aβ1-42 (manufactured by Wako) was dissolved in phosphate buffer (pH 7.4) and shaken at 37° C. for 72 hours, to obtain 1 mg/mL of a suspension of aggregated Aβ (hereinafter referred to as amyloid suspension in the Examples).
(§8) (3) A sample solution (30 MBq/mL in radioactivity concentration, Example 24) in which Compound 4 was dissolved in a 10 mg/mL ascorbic acid-containing physiological saline solution and a sample solution (30 MBq/mL in radioactivity concentration, Example 25) in which Compound 6 was dissolved in a 10 mg/mL ascorbic acid-containing physiological saline solution were prepared. This solution was injected under thiopental anesthesia into the rat through the tail vein (dosage: 0.5 mL, dosed radioactivity: 11-15 MBq equivalent).
(§9) Thus, it was confirmed that amyloid was deposited on the slice (FIG. 12 and FIG. 13).

[6] = target: T1, amyloid (aggregated Aβ1-42) injected into amygdaloid nucleus (Homo sapiens, UniProt P05067); test: as above; assay type: in vivo, rat; details: brain slice 60 minutes after intravenous injection, Aβ1-42
T1 construct: Aβ1-42 (manufactured by Wako) was dissolved in phosphate buffer (pH 7.4); purchased Wako
T1 sequence (P05067 672-713): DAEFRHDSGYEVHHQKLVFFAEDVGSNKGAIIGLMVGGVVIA
Method: as §1, §2, §3, §4, §5, §6, §7, §8, §9

[7] = system: amyloid (aggregated Aβ1-40) injected into amygdaloid nucleus; test: ex vivo autoradiogram using rats of amyloid injected model (Aβ1-40); assay type: in vivo, rat; details: brain slice 60 minutes after intravenous injection
Method: (§10) (1) Aβ1-40 (manufactured by Peptide Institute, INC.) was dissolved in phosphate buffer (pH 7.4) and shaken at 37° C. for 72 hours, to obtain a 1 mg/mL suspension of aggregated Aβ (hereinafter referred to as amyloid suspension in this Example).
as §2
as §3, with “[^123I]-IMPY” for “Compound 1”, “(29” for “(22”, “14.5” for “11-13”
as §4, with “Corporation). […]” for “Corporation).”

[8] = target: T2, amyloid (aggregated Aβ1-40) injected into amygdaloid nucleus (Homo sapiens, UniProt P05067); test: as above; assay type: in vivo, rat; details: brain slice 60 minutes after intravenous injection, Aβ1-40
T2 construct: Aβ1-40 (manufactured by Peptide Institute, INC.) was dissolved in phosphate buffer (pH 7.4); purchased Peptide Institute, INC
T2 sequence (P05067 672-711): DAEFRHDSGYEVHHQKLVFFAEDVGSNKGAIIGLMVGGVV
Method: as §10, §2
as §3, with “[^123I]-IMPY” for “Compound 1”, “(29” for “(22”, “14.5” for “11-13”
as §4, with “Corporation). […]” for “Corporation).”

[9] = Table 6 (Examples 20-21, Comparative Example 7)
[10] = Table 4 (Examples 8-9, Comparative Example 4)

Compound	Radioactive distribution per unit weight in brain, After 2 min. ([3]; Table 7)	Radioactive distribution per unit weight in brain, After 5 min. ([3]; Table 7)	Radioactive distribution per unit weight in brain, After 30 min. ([3]; Table 7)	Radioactive distribution per unit weight in brain, After 60 min. ([3]; Table 7)	radioactive accumulation in brain two minutes after the injection (in words) [3]	clearance from brain in 60 minutes (in words) [3]	logPoctanol value [4, 9]	accumulation of radioactivity at sites other than the amyloid injected sites [5]	accumulation of radioactivity in amygdaloid nucleus on the physiological saline-injected side [5]	accumulation of radioactivity in amygdaloid nucleus on the amyloid-injected side [6]	other results
CNc1ccc(/C=C/c2ccc(O)cc2)cc1 [SB-13, (E)-4-methylamino-4′-hydroxystilbene]											clearance from normal tissues [1]: it cannot be said that the clearance is sufficiently fast
CC(=C(C#N)C#N)c1ccc2cc(N(C)CCF)ccc2c1 [FDDNP, 2-(1-{6-[(2-fluoroethyl)(methyl)amino]-2-naphthyl}ethylidene)malononitrile]											reverse mutation test result [2]: positive
2-[4′-(3″-hydroxypropoxy)phenyl]-6-[^123I]iodoimidazo[1,2-a]pyridine [Compound 6]	0.81 % ID/g	0.56 % ID/g	0.07 % ID/g	0.02 % ID/g	significant accumulation	rapidly clear away	2.1	little accumulation of radioactivity	no significant accumulation of radioactivity	marked accumulation of radioactivity	
2-(4′-ethoxyphenyl)-6-[^123I]iodoimidazo[1,2-a]pyridine [Compound 2]					significant radioactive accumulation	rapidly clear away		some radioactive accumulation	no significant accumulation of radioactivity	marked accumulation of radioactivity	Radioactive distribution per unit weight in brain, After 2 min. ([3]; Table 5): 0.89 % ID/g; Radioactive distribution per unit weight in brain, After 5 min. ([3]; Table 5): 0.66 % ID/g; Radioactive distribution per unit weight in brain, After 30 min. ([3]; Table 5): 0.13 % ID/g; Radioactive distribution per unit weight in brain, After 60 min. ([3]; Table 5): 0.04 % ID/g; logPoctanol value [4, 10]: 2.1
CN(C)c1ccc(-c2cn3cc([123I])ccc3n2)cc1 [[^123I]-IMPY, reference compound]	1.19 % ID/g	0.97 % ID/g	0.23 % ID/g	0.09 % ID/g			2.1				accumulation in white matter where amyloid was not injected [7]: non-specific accumulation was observed; accumulation of radioactivity in amygdaloid nucleus on the amyloid-injected side [8]: marked accumulation of radioactivity; Radioactive distribution per unit weight in brain, After 2 min. ([3]; Table 5): 1.19 % ID/g; Radioactive distribution per unit weight in brain, After 5 min. ([3]; Table 5): 0.97 % ID/g; Radioactive distribution per unit weight in brain, After 30 min. ([3]; Table 5): 0.23 % ID/g; Radioactive distribution per unit weight in brain, After 60 min. ([3]; Table 5): 0.09 % ID/g; logPoctanol value [4, 10]: 1.9
CN(C)c1ccc(-c2cn3cc(I)ccc3n2)cc1 [IMPY, 6-iodo-2-[4′-(N,N-dimethylamino)phenyl]imidazo[1,2-a]pyridine]											reverse mutation test result [2]: positive
2-[3′-(2″-hydroxyethoxy)phenyl]-6-[^123I]iodoimidazo[1,2-a]pyridine [Compound 4]	0.56 % ID/g	0.28 % ID/g	0.04 % ID/g	0.01 % ID/g	significant accumulation	rapidly clear away	2.5	little accumulation of radioactivity	no significant accumulation of radioactivity	marked accumulation of radioactivity	
